# According to patent US20240391872A1, “PHENOXY-ACETYL-THIOUREIDO-BENZENESULFONAMIDE DERIVATIVES, AND THEIR USES” (priority 2021, published 2024):
# pEC50, pIC50: −log10 of the molar value. “Also recorded” adds a separate entry of the source. Where two headings read alike, the source gives them in different places.
# Tests used:
# [1] = Pharmacokinetics experiments in mice; type: in vivo; settings: blood
# Description: (§1) The low potency of RG10 in HAE could be attributed to its weak stability and therefore, the inventor designed a novel RG10 derivative, which the inventor called RG10b. This derivative harbors a modification shielding a molecular weakness present in RG10.
# [2] = Innocuity assessment in mice (weight); type: in vivo; settings: concentrations up to 10 mg/kg
# Description: Two mice were used per condition.
# as §1
# SARS-CoV-2 [3] = assay: microbe, parasite or virus in culture; type: cell-based; settings: for pIC50: SARS-CoV-2 MOI 0.01, 48 h, vRNA RT-qPCR; for antiviral activity (relative SARS-CoV-2 vRNA levels): MOI 0.01, 48 h, indicated concentrations
# SARS-CoV-2 [4] = assay: SARS-CoV-2 infection of human airway epithelia (HAE); type: cell-based; settings: 10 μM; for viral RNA by RT-qPCR: wild type CoV2 MOI 0.01, 4 days
# Procedure: (§2) FIG. 33 HAE cells were either untreated (Mock) or treated with 10 μM of RG10 and then infected with SARS-CoV-2 mNeonGreen virus at MOI 0.1. After 4 days, cells were fixed and stained for CoV2 spike protein and actin filaments (phalloidin staining). Z-stack images were acquired using a confocal microscope and processed using ImageJ to produce an average intensity image for each individual channel. Scale bar=20 μm.
# as §2, with “34” for “33”
# FIG. 35 3D representation of the images from [FIG. 33] and [FIG. 34] using the Imaris software. Scale bar=20 μm.
# FIG. 37 Same samples from [FIG. 36] were processed to measure by RT-qPCR, relative vRNA levels normalized by Rpl27 RNA expression. The bars are means+/−SD from two pooled independent experiments. Student's t-test **p value<0.01; ***p value<0.005; ****p value<0.001.
# FIG. 42 HAE cells were treated with 10 μM of RG10, RG10b, and Remdesivir and then infected for 4 days with CoV2 at MOI 0.01. Cells were then processed for RNA extraction and RT-qPCR experiments. […] Student's t-test *p value<0.05 **p value<0.01; ***p value<0.005.
# Huh7.5.1 (Zhong J. et al. (2005) Proceedings of the National Academy of Sciences of the United States of America 102:9294-9), Vero E6 (ECACC #85020206), Caco2, and HEK 293T cells were cultured in DMEM GlutaMAX (Thermo Fisher Scientific) supplemented with 10% fetal calf serum and penicillin-streptomycin (500 μg/ml; GIBCO). HAE cells (Epithelix) were cultured in Mucilair media at the basal side and maintained at air-liquid interface. Apical washes were performed each 2-3 days by temporarily adding Mucilair media for 30 minutes. All cell types were maintained at 37° C. in a 5% CO2 atmosphere.
# Cells were lysed and RNA immediately extracted using the Luna Cell Ready Lysis Module according to the manufacturer's protocol (New England Biolabs). RT-qPCR on extracted RNA was performed using the Luna One-Step RT-qPCR Kit (New England Biolabs). The samples were analyzed using a Lightcycler 480 instrument (Roche) using the following thermal cycle: Reverse transcription step at 55° C. for 15 min, initial denaturation at 95° C. for 2 min. Then, 40 cycles were programmed consisting of 15 s of denaturation at 95° C. followed by 30 s of annealing/extension at 55°. Fluorescent data collection was performed at the end of each cycle. SARS-CoV-2 viral RNA was detected using the N1 probe that targets specifically the N protein. […]
# endoplasmic reticulum = assay: Confocal imaging of ER morphology and compound localization in Huh7.5.1 cells; type: cell-based, human; settings: 50 μM, 6 h, Calnexin staining
# Procedure: FIG. 15 Huh7.5.1 cells were treated with 25 µM of RG10-Rhod or free Rhodamine for 3 h. Cells were fixed and stained using an anti-Calnexin antibody as a marker for ER membranes and DAPI for nuclear staining. One channel corresponds to rhodamine fluorescence. The micrographs show the individual channels and merge that have been acquired using confocal microscopy and processed using ImageJ. Scale bar=10 μm.
# FIG. 17 Huh.7.5.1 cells were treated with 50 μM of RG10 for 6 h and then were processed for confocal imaging.
# Cells were then fixed and stained using an anti-Calnexin antibody as a marker for ER membranes and DAPI for nuclear staining. The micrographs show the individual channels and merge that have been acquired using confocal microscopy and processed using ImageJ. Scale bar=10 μm.
# Cells grown on #1.5 glass coverslips were fixed with 4% PFA for 15 min. Cells were then permeabilized with 0.1% Triton X100 and saturated with 0.2% BSA. Then, primary antibody incubation was performed for 1 h. After a series of PBS washes, secondary antibodies were added for 30 min. DAPI staining was performed for 10 min to obtain nuclear staining. Coverslips were mounted on glass slides using Mowiol mounting media. Images were acquired using a Leica SP5 confocal microscope.
# SARS-CoV-2 [5] = type: cell-based; settings: Caco2 cells, 10 μM, MOI 0.01, 48 h
# [6] = Cytotoxicity, LDH release assay; type: cell-based
# SARS-CoV-2 [7] = assay: Time-of-addition experiment, CoV2 in Vero E6 cells; type: cell-based
# ZIKV = type: cell-based, Zika virus; settings: MOI 0.3, 24 h
# N-mRuby3 CoV2 = assay: Live cell imaging and tracking of N-mRuby3 CoV2 particles in Huh7.5.1 cells; type: cell-based, SARS-CoV-2
# HCoV-229E-Renilla = type: cell-based, human coronavirus 229E
# sXBP-1 = assay: ER stress mediator RNA levels by RT-qPCR in Huh7.5.1 cells; type: cell-based, human
# SARS-CoV-2 [8] = assay: microbe, parasite or virus in culture; type: cell-based
# sXBP1 = sXBP1 RNA levels in HAE cells infected with CoV2; type: cell-based, human; settings: 10 μM, CoV2 MOI 0.01, 4 days
# Procedure: FIG. 36 HAE cells were treated with 10 μM of RG10 and Remdesivir and then infected with wild type CoV2 at MOI 0.01 for 4 days. Graphs show relative sXBP1 RNA levels normalized with GAPDH RNA expression.
# Cells were lysed and RNA immediately extracted using the Luna Cell Ready Lysis Module according to the manufacturer's protocol (New England Biolabs). RT-qPCR on extracted RNA was performed using the Luna One-Step RT-qPCR Kit (New England Biolabs). The samples were analyzed using a Lightcycler 480 instrument (Roche) using the following thermal cycle: Reverse transcription step at 55° C. for 15 min, initial denaturation at 95° C. for 2 min. Then, 40 cycles were programmed consisting of 15 s of denaturation at 95° C. followed by 30 s of annealing/extension at 55°. Fluorescent data collection was performed at the end of each cycle. SARS-CoV-2 viral RNA was detected using the N1 probe that targets specifically the N protein. For normalization, primers targeting Rpl27 or GAPDH were utilized.
# Vero E6 cells = settings: cited from earlier work
# [9] = infected non-human primates; cited from earlier work
# [10] = Severe acute respiratory syndrome coronavirus 2, Vero C1008, Vero E6 cells
# [11] = Huh 7.5.1 cells, 10 μM, MOI 0.01, 48 h
# [12] = Huh7.5.1 cells, 10 μM, MOI 0.5, 48 h
# [13] = Huh 7.5.1 cells, 25 μM, MOI 0.01, 48 h
compound,measurement,setting,value
COc1ccc(N2CCC(NC(=S)Nc3ccc(S(=O)(=O)NC4CCCCC4)cc3)C2)cc1 (stereo not drawn) [RG10b],half-life relative to RG10,[1],more than 3 fold
same,half-life,"[1]; mouse, read-out: pharmacokinetic half-life / stability in vivo",> 2 h
same,innocuity / toxicity in mice,[2],well supported by mice at concentrations up to 10 mg/kg; also recorded: no toxicity observed
same,pEC50,"SARS-CoV-2 [3]; Severe acute respiratory syndrome coronavirus 2, Vero C1008, Vero E6 cells, CoV2 48 h (FIGS. 38 and 39)",> 6.00
same,pIC50,SARS-CoV-2 [3]; [10],~6.00
same,antiviral activity (relative SARS-CoV-2 vRNA levels),SARS-CoV-2 [3]; Vero E6 cells,more potent than RG10
same,viral RNA by RT-qPCR,SARS-CoV-2 [4],"more potent than RG10, showing antiviral activity similar to Remdesivir"
COc1ccc(OCCNC(=S)Nc2ccc(S(=O)(=O)NC3CCCCC3)cc2)cc1 [RG10],ER morphology,endoplasmic reticulum,perturbed ER morphology
same,CoV2 antiviral activity (relative vRNA levels),SARS-CoV-2 [5],high CoV2 antiviral activity
same,cytotoxicity,[6],did not show cytotoxicity at working concentrations
same,cytotoxicity,"[6]; LDH release, working concentrations","very low cytotoxicity compared to Latrunculin, jasplakinolide and cytocalasin D"
same,"antiviral activity, vRNA levels, RG10 Pre","SARS-CoV-2 [7]; Vero E6, MOI 0.1, 10 μM during the first 4 h of infection and washed-out",no antiviral activity when incubated only during virus entry
same,"vRNA expression levels, RG10 Post","SARS-CoV-2 [7]; Vero E6, MOI 0.1, 10 μM starting at 4 h post-infection",significantly decreased vRNA expression levels
same,"viral N protein and dsRNA levels by flow cytometry, entry steps","SARS-CoV-2 [7]; Vero E6, MOI 0.1, 10 μM, 24 h",some inhibition was also observed at the entry steps
same,"viral N protein and dsRNA levels by flow cytometry, post entry","SARS-CoV-2 [7]; Vero E6, MOI 0.1, 10 μM, 24 h",strong antiviral activity post entry
same,antiviral activity against ZIKV (relative vRNA levels),"ZIKV; Vero E6, 10 μM",no detectable effect on ZIKV; also recorded: unable to inhibit ZIKV replication
same,pIC50,SARS-CoV-2 [3]; [10],5.81
same,antiviral activity (relative SARS-CoV-2 vRNA levels),SARS-CoV-2 [3]; Vero E6 cells,potent antiviral molecule with similar activity levels as Remdesivir; also recorded: high CoV2 antiviral activity
same,mean particle speed of virus,N-mRuby3 CoV2,slowed down virus movement to the ER
same,antiviral activity against HCoV-229E,HCoV-229E-Renilla,"significant antiviral activity, although potency was lower"
same,sXBP-1 RNA levels,sXBP-1; 10 μM,no difference was observed between RG10 and RG7
same,sXBP-1 RNA levels,"sXBP-1; 50 μM, 6 h",enriched
same,CoV2 antiviral activity (relative vRNA levels),SARS-CoV-2 [8]; [11],high CoV2 antiviral activity
same,"neosynthesized Spike protein, Western blot",SARS-CoV-2 [8]; [12],could barely be detected
same,"viral RNA synthesis, dsRNA immunolabeling",SARS-CoV-2 [8]; [12],prevents viral RNA synthesis
same,"viral protein synthesis, microscopy and flow cytometry",SARS-CoV-2 [8]; [12],prevent viral protein synthesis
same,potency at high multiplicity of infection,"SARS-CoV-2 [8]; Huh7.5.1 cells, 10 μM, indicated MOI, 48 h",retained potency at high multiplicity of infection (MOI) similar to Rem
same,pEC50,"SARS-CoV-2 [8]; Severe acute respiratory syndrome coronavirus 2, Huh-7.5.1, potency in Huh7.5.1 cells (FIG. 3)",~5.82
same,sXBP-1 RNA levels,sXBP1,upregulated
same,HAE viability,SARS-CoV-2 [4]; 4 days,viability was similar
same,"viral infection, fluorescent mNeonGreen virus","SARS-CoV-2 [4]; MOI 0.1, 4 days",decreases viral infection
same,viral RNA by RT-qPCR,SARS-CoV-2 [4],"decreased by RG10, although the extent of the decrease was much lower than Remdesivir treatment"
NC(=O)c1nc(F)c[nH]c1=O [favipiravir],potency in vitro,Vero E6 cells; in vitro,very low potency in vitro
COc1ccc(N2CCC(NC(=S)Nc3ccc(S(=N)(=O)NC4CCCCC4)cc3)C2)cc1 (stereo not drawn) [RG27-1],antiviral activity (relative SARS-CoV-2 vRNA levels),SARS-CoV-2 [8]; [11],cannot be observed
same,antiviral activity (relative SARS-CoV-2 vRNA levels),SARS-CoV-2 [8]; [13],harbor also an antiviral activity
"O[C@@H](CS)[C@@H](O)CS [DTT, reference compound]",sXBP-1 RNA levels,"sXBP-1; 1 mM, 6 h, positive control of ER stress",enriched
COc1ccc(N2CCCC(NC(=S)Nc3ccc(S(=O)(=O)NC4CCCCC4)cc3)C2)cc1 (stereo not drawn) [RG27-8],antiviral activity (relative SARS-CoV-2 vRNA levels),SARS-CoV-2 [8]; [11],cannot be observed
same,antiviral activity (relative SARS-CoV-2 vRNA levels),SARS-CoV-2 [8]; [13],harbor also an antiviral activity
Tunicamycin [reference compound],antiviral activity against ZIKV (relative vRNA levels),"ZIKV; Vero E6, 1 μM",active against both viruses
same,antiviral activity against CoV2 (relative vRNA levels),SARS-CoV-2 [3],active against both viruses
CCN(CCO)CCCC(C)Nc1ccnc2cc(Cl)ccc12 (stereo not drawn) [Hydroxychloroquine],pEC50,Vero E6 cells; Vero E6 cells,~5.70
same,viral loads,[9],does not decrease the viral loads
